# Structures can show the parent of a compound that is named as a salt.
# Assays:
# [1] = test system: SKMEL-V+ cells; test: Cell proliferation / survival, MTT assay, SKMEL-V+ cells; assay type: cell-based, human; conditions: 96 hours
# Description: Exponentially growing SKMEL-V+ cells (1×10^3) were seeded in 96-well plates in complete medium. […] Cell survival was evaluated 96 hours later using the MTT metabolic assay (Benlimame N, He Q, Jie S, et al. FAK signaling is critical for ErbB-2/ErbB-3 receptor cooperation for oncogenic transformation and invasion. J Cell Biol 2005; 171: 505-16).
# [2] = test system: APPswe/PS1dE9 mice; test: Behavioral studies (maze, fear conditioning) in APPswe/PS1dE9 mice; assay type: in vivo, mouse
# Description: The experiments were performed at Pennington Biomedical Research Centre (PBRC) of Lousiana State University, Baton Rouge, Lousiana and were approved by the Institutional Animal Care and Use Committee (IACUC) of PBRC.
# The APPswe/PS1dE9 mice were generated against a C57/BL6J background by breeding either +/+ males or females with −/− females or males, respectively.
# Memantine (10 mg/kg) and both doses of QC-199 (15 mg/kg & 30 mg/kg) were prepared in batches and frozen for later use. Each compound was weighed and dissolved in injectable sterile saline solution. Memantine was prepared at a concentration of 1 mg/ml, the 15 mg/kg dose of QC-199 at a volume of 15 mg/10 ml, and the 30 mg/kg dose of QC-199 at a volume of 30 mg/10 ml. The compounds were prepared in this volume so that the mice could easily be injected based on their body weight, e.g., a 35 gram mouse was injected with 0.35 ml dosing solution.
# Memantine and QC-199 dosing solutions were administered to mice via i.p. injections. The mice were weighed 3 times/week and were injected with a volume that matched their body weight. The mice were injected daily and the injection located was alternated each day to avoid potential complications from injection in the same location on a daily basis.
# After reaching their respective treatment duration, the wild type and APP/PS1 double transgenic mice were run through the STM and fear conditioning. The STM consisted of one day of straight run training (running down an alley from the start box to the goal box). This phase was implemented to establish the contingency that moving forward would provide escape into the dark and dry goal box. The mice were required to reach a criterion of completing the straight run in 15 sec or less on 7 out of 9 trials over a maximum of 15 trials. […] The following day each mouse was administered 15 trials in the STM with approximately 7-10 min between each trial where they were placed into a holding cage with a towel. The latency to reach the goal box and the number of errors committed were the dependent measures of learning. However, in our experience, errors committed is much more indicative of learning and is reported for this project. Pictures of the straight run (A) and maze (B) are shown in FIG. 42, along with a schematic (C) of the maze indicating the correct path. The data from the maze was collapsed into blocks of 5 trials for data summary and presentation.
# Med Associates Inc.'s MED-VFC-NIR-M NIR Video Fear Conditioning System for Mouse, Pavlovian fear conditioning was conducted after the STM. On Day 1 the mice were placed in Context 1 and given 5 tone+shock pairings. On day 2 the mice were placed back into Context 1 and their freezing response to being placed back into the original context where fear conditioning occurred was measured. Freezing is operationally defined as the cessation of all movement except that required for respiration. Freezing was measured over 10 minutes, and data were summarized in 1-min intervals. On day 3 the mice were placed into a novel context (Context 2) for 10 min. […] For the final 5 min, the tone paired with shock during fear conditioning was presented. Again, the data was summarized in 1-min intervals.
# Maze data was analyzed by two-way ANOVAs to determine treatment group effects for both errors and run time after the data was collapsed into three 5 trial blocks. Planned comparisons of transgenic mice treated with saline with each of the drug treatments, memantine or QC-199 at 15 mg/kg/day and 30 mg/kg/day were conducted to evaluate group differences in the maze at each trial block and both tone and contextual fear conditioning tests. The critical a level was set at 0.05 for all statistical tests. The values in FIGS. 46A-46C represent the means±S.E.M. The data was analyzed using the SPSS statistical program version 11.0. […]
# [3] = test system: human metastatic prostate cancer PC-3M cells; test: Orthotopic PC-3M prostate cancer model in SCID mice; assay type: in vivo
# Source text: PC-3 & PC-3M (human prostate carcinoma). The PC-3 human prostate cancer cell line was originally obtained from the American Type Culture Collection (Rockville, Md.). The PC-3M cell line was kindly provided by Dr. Issac (MD Anderson Cancer Center). This cell variant was derived from a liver metastasis produced by the parental PC-3 cells growing in the spleen of a nude mouse [Pettaway C A, Pathak S, Greene G, et al. Selection of highly metastatic variants of different human prostate carcinomas utilizing orthotopic implantation in nude mice.
# Male SCID mice were housed in laminar flow under specific pathogen-free conditions and used at 8-9 weeks of age. Animals were maintained in the LDI facilities approved by the Laboratory Animal Care in accordance with current Canadian regulations and standards for the use of animals for research.
# Mice were anesthesized with isofluorane given by inhalation and placed in a supine position. […] A low midline incision was made and the prostate was exposed. Fifty microliters of HBSS containing 1×10^6 cells was injected into a lateral lobe of the prostate. The wound was closed with surgical metal clips in two layers, the muscle layer first and then the skin layer using stainless steel clips (autoclips: 9 mm; Clay Adams Inc., Parsippany, N.J.). […] Control groups received the vehicle alone. Taxol™ was given either ip or iv as indicated.
# Primary tumors in the prostate were excised, measured, and weighed. When applicable, immunohistochemistry and H&E staining were conducted on one part of the tumor, fixed in formalin and embedded in paraffin or OCT compound (Miles Inc., Elkhart, Ind.); the later was rapidly frozen in liquid nitrogen, and stored at −70° C. Macroscopically enlarged regional lymph nodes were harvested and the presence of metastatic disease was confirmed by histology.
# The in vivo data was analyzed using the Mann-Whitney U test.
# [4] = test system: PC-3 (human prostate carcinoma); test: Prostate carcinoma model PC-3 in SCID mice
# Source text: • Species and strain: Mouse (Mus musculus); female SCID (MDA231 and OVCAR3), male SCID (PC-3, HCT116); male CD57 B16 mice (BL16-BL6) • Age: 6-8 weeks old. • Supplier: Charles River Laboratories, Inc., St-Constant, Quebec, Canada. • Acclimation: Mice were acclimated to laboratory conditions for approximately 1 week prior to tumor cell inoculation. • Identification: Mice were identified by ear punch combination. • Housing: Mice were housed in groups of 3-5 in a designated animal facility with a temperature of 22° C., a relative humidity of 40-50%, and a 12 hr light/dark cycle.
# PC-3 (human prostate carcinoma). These cells were originally received from the ATCC. Early passage cells (tested free of mycoplasma) were grown to 60% confluence in DMEM medium supplemented with 10% fetal bovine serum, and antibiotics. Cell harvesting was performed using trypsin-EDTA solution.
# Exponentially growing cells were harvested using trypsin-EDTA solution. […] Cell viability was confirmed by trypan blue staining. […] One to 2 millions cells suspended in 0.1 mL phosphate buffer solution was implanted into the mammary fat pad (MCF7) or subcutaneously into the axillary region of the right flank of recipient SCID mice. All animals were inoculated at the same site.
# Mice were subjected to general examination on daily basis. […] Control groups received the vehicle alone. Chemotherapy drugs were also given by intraperitoneal route according to the schedule described below.
# Primary tumor growth was monitored every second to fourth day using calipers. Relative tumor volume (cm^3) was determined by the formula:
# Body weights were monitored every third to fifth day. Animals experiencing signs of discomfort were sacrificed immediately (in some cases they were replaced by spared mice). […] Mice were sacrificed by cervical dislocation and immediately subjected to full autopsy.
# [5] = target: T1, HO-2 (rat brain) (Rattus norvegicus, UniProt P23711); test: HO enzymatic activity in rat brain microsomal fraction (CO formed from methemalbumin, gas chromatography); assay type: biochemical; conditions: rat brain microsomes; average ± standard deviation of replicate experiments; read-out: IC50 HO-2 (rat brain)/μM
# T1 construct: brain microsomes were used as a source of HO-2; from tissue; host or cells: brain microsomal fraction of adult male Sprague-Dawley rats
# T1 sequence (P23711 1-315): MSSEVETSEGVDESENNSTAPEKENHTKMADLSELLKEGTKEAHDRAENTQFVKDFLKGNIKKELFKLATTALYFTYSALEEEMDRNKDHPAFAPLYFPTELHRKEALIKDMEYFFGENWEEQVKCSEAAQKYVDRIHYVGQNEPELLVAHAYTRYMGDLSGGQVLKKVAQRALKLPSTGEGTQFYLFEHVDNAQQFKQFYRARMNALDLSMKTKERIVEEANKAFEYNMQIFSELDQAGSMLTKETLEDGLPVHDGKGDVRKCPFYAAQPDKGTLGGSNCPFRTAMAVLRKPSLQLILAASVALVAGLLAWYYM
# [6] = target: T2, HO-1 (rat spleen) (Rattus norvegicus, UniProt P06762); test: HO enzymatic activity in rat spleen microsomal fraction (CO formed from methemalbumin, gas chromatography); assay type: biochemical; conditions: rat spleen microsomes; average ± standard deviation of replicate experiments; read-out: IC50 HO-1 (rat spleen)/μM
# T2 construct: Spleen microsomes were used as a source of HO-1; from tissue; host or cells: spleen microsomal fraction of adult male Sprague-Dawley rats
# T2 sequence (P06762 1-289): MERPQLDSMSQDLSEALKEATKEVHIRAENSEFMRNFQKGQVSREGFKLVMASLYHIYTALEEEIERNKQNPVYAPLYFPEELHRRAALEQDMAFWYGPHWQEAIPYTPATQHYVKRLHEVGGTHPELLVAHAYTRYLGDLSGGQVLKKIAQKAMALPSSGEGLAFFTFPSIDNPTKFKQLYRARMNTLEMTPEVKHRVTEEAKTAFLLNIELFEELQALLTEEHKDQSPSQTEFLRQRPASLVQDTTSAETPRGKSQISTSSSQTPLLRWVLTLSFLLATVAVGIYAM
# [7] = QC-56 30 mg/kg intraperitoneally daily for 12 days, Taxol 10 mg/kg i.p. 3 cycles
compound,measurement,setting,value
Cl.Clc1ccc(CC[C@@]2(Cn3ccnc3)OC[C@@H](CSC3CCCCC3)O2)cc1,melting point,,172 to 173 °C
Cl.Clc1ccc(CC[C@@]2(Cn3ccnc3)OC[C@@H](CSc3cccc(Br)c3)O2)cc1,melting point,,128 to 129 °C
C[C@H]1CO[C@@](CCc2ccc(Cl)cc2)(Cn2ccnc2)O1.Cl,melting point,,148 to 149 °C
C[C@H]1CO[C@](CCc2ccc(Cl)cc2)(Cn2ccnc2)O1.Cl,melting point,,172 to 173 °C
C[C@@H]1CO[C@](CCc2ccc(Cl)cc2)(Cn2ccnc2)O1.Cl,melting point,,152 to 153 °C
Cl.Clc1ccc(CC[C@@]2(Cn3ccnc3)OC[C@@H](CSc3ccc(Br)cc3)O2)cc1,melting point,,141 to 142 °C
Cl.Oc1ccc(OC[C@H]2CO[C@@](CCc3ccc(Cl)cc3)(Cn3ccnc3)O2)cc1,melting point,,128 to 130 °C
COc1ccc(SC[C@@H]2CO[C@@](CCc3ccc(Cl)cc3)(Cn3ccnc3)O2)cc1.Cl,melting point,,139 to 140 °C
Cl.Clc1ccc(CC[C@@]2(Cn3ccnc3)OC[C@@H](CSc3ccc(Cl)cc3)O2)cc1,melting point,,128 to 129 °C
Cl.Fc1ccc(SC[C@@H]2CO[C@@](CCc3ccc(Cl)cc3)(Cn3ccnc3)O2)cc1,melting point,,112 to 113 °C
Cl.Fc1ccc(CCC2(Cn3ccnc3)OCCO2)cc1,melting point,,153 to 154 °C
Cl.c1ccc(CCC2(Cn3ccnc3)OCCO2)cc1,melting point,,164 to 165 °C
Cl.FC(F)(F)c1ccc(SC[C@@H]2CO[C@@](CCc3ccc(Cl)cc3)(Cn3ccnc3)O2)nc1,melting point,,156 to 157 °C
Cl.Clc1ccc(CC[C@@]2(Cn3ccnc3)OC[C@H](COc3ccc(C45CC6CC(CC(C6)C4)C5)cc3)O2)cc1,melting point,,132 to 134 °C
Cl.OC(CCc1ccc(F)cc1)Cn1ccnc1 (racemic),melting point,,86 to 87 °C
"OC(Cn1ccnc1)c1ccc(-c2ccc(Br)cc2)cc1 (racemic) [QC-304, (±)-1-(4′-bromo-biphenyl-4-yl)-2-imidazol-1-yl-ethanol]",% cell survival,[1]; 6.25 μM to 100 μM,no significant change in cell survival
same,potency in comparison with the other HO-1 inhibitors,[1]; 6.25 μM,most potent
Cl.Clc1ccc(CC[C@@]2(Cn3ccnc3)OC[C@@H](COc3ccc(Br)cc3)O2)cc1 (stereo in doubt),melting point,,55 to 57 °C
Cl.Clc1ccc(CC[C@@]2(Cn3ccnc3)OC[C@@H](COc3ccc(I)cc3)O2)cc1 (stereo in doubt),melting point,,113 to 114 °C
"CC12CC3CC(C)(C1)CC(N)(C3)C2 [Memantine, reference compound]",effect on maze errors and contextual fear conditioning (summary),"[2]; Memantine, QC-199 15 mg/kg and 30 mg/kg, dtg mice",positive effect
same,maze errors vs saline-treated APP/PS1 mice,"[2]; QC-199 15 mg/kg/day i.p., Memantine 10 mg/kg i.p., improved at Trial Blocks 2 and 3, not 1",improved maze
same,contextual fear conditioning (freezing) vs saline-treated APP/PS1 mice,"[2]; QC-199 15 and 30 mg/kg/day, Memantine 10 mg/kg, Time Blocks 1-4",no significant differences
same,tone fear conditioning (freezing) vs saline-treated APP/PS1 mice,"[2]; QC-199 15 and 30 mg/kg/day, Memantine 10 mg/kg, Trial Blocks 3 and 4",no significant differences
"CC(=O)O[C@H]1C(=O)[C@@]2(C)[C@H]([C@H](OC(=O)c3ccccc3)[C@]3(O)C[C@H](OC(=O)[C@H](O)[C@@H](NC(=O)c4ccccc4)c4ccccc4)C(C)=C1C3(C)C)[C@]1(OC(C)=O)CO[C@@H]1C[C@@H]2O [Taxol™, paclitaxel, reference compound]",inhibition of tumor growth,[3]; [7],64%
same,reduction in microscopic lymph node metastases,[3]; [7],82%
same,reduction in microscopic lymph node metastases,"[3]; QC-56 40 mg/kg daily for 24 days, Taxol 10 mg/kg, 4 cycles",47%
same,inhibition of tumor growth compared to untreated mice,"[3]; QC-56 40 mg/kg daily for 24 days, Taxol 10 mg/kg, 4 cycles, 3 administrations per cycle",45%
same,Body Weights (g) d8 (mean + SE),"[4]; PC-3 mice, treatment day 8",22.40 ± 7.92 g
same,Body Weights (g) d42 (mean + SE),"[4]; PC-3 mice, treatment day 42",17.70 ± 6.25 g
same,inhibition of tumor growth compared to vehicle alone,"[4]; QC-56 60 mg/kg/ip, Taxol 10 mg/kg",~28%
"FC[C@@H]1CO[C@@](CCc2ccc(Cl)cc2)(Cn2ccnc2)O1 [drawing 85, (2R,4S)-2-[2-(4-chlorophenyl)ethyl]-2-[(1H-imidazol-1-yl)methyl]-4-(fluoromethyl)-1,3-dioxolane hydrochloride]",IC50,[5],4.4 ± 0.4 µM
same,IC50,[6],1.2 ± 0.01 µM
"O=C(CCc1ccccc1)Cn1cnc(-c2ccccc2)c1 [drawing 162, 4-Phenyl-1-(4-phenyl-imidazol-1-yl)-butan-2-one hydrochloride]",IC50,[5],> 100 µM
same,IC50,[6],32 ± 2 µM
"O=C(CCc1ccccc1)Cn1cnc(-c2ccccc2)c1 [drawing 256, 4-Phenyl-1-(4-phenyl-1H-imidazol-1-yl)-butan-2-one hydrochloride]",IC50,[5],> 100 µM
same,IC50,[6],32 ± 2 µM
Imidazole [reference compound],IC50,[5],> 100 µM
same,IC50,[6],> 100 µM

# From patent US20140155445A1, “Compounds and Methods for Treating Cancer and Diseases of the Central Nervous System” (Osta Biotechnologies Inc., priority 2007, published 2014)
